According to patent US6306893A, “Taxoid derivatives and process for producing the same” (Ensuiko Sugar Refining Company, Ltd, priority 2000, dated 2001):
≈ marks a conversion by molar mass, not a printed value. Entries after “also recorded” stand apart in the source; their conditions may differ.

What was measured:
P388 leukemia cells = experiment: Antitumor test in mice implanted with P388 leukemia cells: survival days; assay type: in vivo, mouse; details: for Median of Survival Days: P388 i.p. in CDF1 male mice, control 7 days; for Median of Survival Days / % T/C: 20 mg/kg i.p., 5 consecutive days; for % T/C: median survival days treated × 100 / median of control
Source text: ^a) Median of survival days of each treated group (day) ×
100/Median of survival days of control group (day)

physchem = details: for solubility at 18 h: water
Protocol: 10 mg of each of paclitaxel, 7-GAG-PT, 7-MAG-PT, 10-GAG-DT (α-anomer), 10-GAG-DT (β-anomer) and 10-MAG-DT (α-anomer)was weighed. To those were added 5 ml of water and the mixture was stirred for 18 hours. After completion of the stirring, supernatant was filtered through a membrane filter (0.45 μm), and the filtrate was analyzed by HPLC. The conditions of HPLC analysis were as follows.

[1] = cited from earlier work; for Solubility in water: background statement
[2] = Change in body weight of P388 leukemia cell implanted mice; assay type: in vivo, mouse; details: after i.p. administration
Protocol: FIG. 1 is a graph illustrating effect of taxoid derivatives on the body weight of P388 leukemia cell implanted mouse.
The mice used were 7 weeks age CDFl mice (male). P388 leukemia cells subcultured in DBA/2 mouse abdominal cavity were injected in the abdominal cavity in an amount of 10^6 cells per mouse. In the case of paclitaxel, samples were dissolved in a solution of ethanol:cremophor=1:1 to a concentration of 6 mg/ml and then diluted 30 times with physiological saline. This was administered intraperitoneally in a dose of 0.1 ml/10 g mouse/time. In the case of taxoid derivatives, samples were dissolved in a solution of ethanol:cremophor=1:1 to a concentration of 60 mg/ml and then diluted 30 times with physiological saline. This was administered intraperitoneally in a dose of 0.1 ml/10 g mouse/time.
The tests were performed by administering the sample for consecutive 5 days starting from the day next to the day when the P388 leukemia cells were injected into the abodominal cavity and observing survival days and change in body weight.

[3] = ratio to paclitaxel (0.4 μg/ml)

Compound | Median of Survival Days (P388 leukemia cells) | % T/C (P388 leukemia cells) | Solubility in water relative to paclitaxel (physchem) | solubility at 18 h (physchem) | other results
CC(=O)O[C@@]12CO[C@@H]1C[C@H](O)[C@@]1(C)C(=O)[C@H](OC(=O)CO[C@@H]3O[C@H](CO)[C@H](O)[C@H](O)[C@H]3O)C3=C(C)[C@@H](OC(=O)[C@H](O)[C@@H](NC(=O)OC(C)(C)C)c4ccccc4)C[C@@](O)([C@@H](OC(=O)c4ccccc4)[C@H]21)C3(C)C [10-GAG-DT (β-anomer), Galactosyloxyacetyl-10-docetaxel] | 12 days | 171% | 753 times | 0.301 mg/mL (≈ 293 µM) | –
CC(=O)O[C@@]12CO[C@@H]1C[C@H](O)[C@@]1(C)C(=O)[C@H](OC(=O)COC3O[C@H](CO)[C@H](O)[C@H](O)[C@H]3O)C3=C(C)[C@@H](OC(=O)[C@H](O)[C@@H](NC(=O)OC(C)(C)C)c4ccccc4)C[C@@](O)([C@@H](OC(=O)c4ccccc4)[C@H]21)C3(C)C (stereo partly shown) [10-GAG-DT, Galactosyloxyacetyl-10-docetaxel] | – | – | – | – | Antitumor / physiological activity (P388 leukemia cells; P388 leukemia implanted mice): excellent antitumor activity; Survival effect as compared with paclitaxel (P388 leukemia cells; P388 leukemia implanted mice, ratio to paclitaxel): 1.2 times
CC(=O)O[C@@]12CO[C@@H]1C[C@H](O)[C@@]1(C)C(=O)[C@H](OC(=O)COC3O[C@H](CO)[C@@H](O)[C@H](O)[C@@H]3O)C3=C(C)[C@@H](OC(=O)[C@H](O)[C@@H](NC(=O)OC(C)(C)C)c4ccccc4)C[C@@](O)([C@@H](OC(=O)c4ccccc4)[C@H]21)C3(C)C (stereo partly shown) [10-MAG-DT, Mannosyloxyacetyl-10-docetaxel] | – | – | – | – | Survival effect as compared with paclitaxel (P388 leukemia cells; P388 leukemia implanted mice, versus paclitaxel): substantially equivalent to that of paclitaxel
CC(=O)O[C@@]12CO[C@@H]1C[C@H](O)[C@@]1(C)C(=O)[C@H](OC(=O)CO[C@H]3O[C@H](CO)[C@@H](O)[C@H](O)[C@@H]3O)C3=C(C)[C@@H](OC(=O)[C@H](O)[C@@H](NC(=O)OC(C)(C)C)c4ccccc4)C[C@@](O)([C@@H](OC(=O)c4ccccc4)[C@H]21)C3(C)C [10-MAG-DT (α-anomer), Mannosyloxyacetyl-10-docetaxel] | 9 days | 129% | 2596 times | 1.04 mg/mL (≈ 1010 µM) | –
CC(=O)O[C@@]12CO[C@@H]1C[C@H](O)[C@@]1(C)C(=O)[C@H](OC(=O)CO[C@H]3O[C@H](CO)[C@H](O)[C@H](O)[C@H]3O)C3=C(C)[C@@H](OC(=O)[C@H](O)[C@@H](NC(=O)OC(C)(C)C)c4ccccc4)C[C@@](O)([C@@H](OC(=O)c4ccccc4)[C@H]21)C3(C)C [10-GAG-DT (α-anomer), Galactosyloxyacetyl-10-docetaxel] | 12 days | 171% | 1204 times | 0.482 mg/mL (≈ 469 µM) | –
CC(=O)O[C@H]1C(=O)[C@]2(C)[C@@H](OC(=O)COC3O[C@H](CO)[C@@H](O)[C@H](O)[C@@H]3O)C[C@H]3OC[C@@]3(OC(C)=O)[C@H]2[C@H](OC(=O)c2ccccc2)[C@]2(O)C[C@H](OC(=O)[C@H](O)[C@@H](NC(=O)c3ccccc3)c3ccccc3)C(C)=C1C2(C)C (stereo partly shown) [7-MAG-PT, Mannosyloxyacetyl-7-paclitaxel] | – | – | – | 0.103 mg/mL (≈ 95.9 µM) | Solubility in water relative to paclitaxel (physchem; [3]): 257 times
CC(=O)O[C@@]12CO[C@@H]1C[C@H](O)[C@@]1(C)C(=O)[C@H](O)C3=C(C)[C@@H](OC(=O)[C@H](O)[C@@H](NC(=O)OC(C)(C)C)c4ccccc4)C[C@@](O)([C@@H](OC(=O)c4ccccc4)[C@H]21)C3(C)C [Docetaxel, docetaxel] | – | – | – | – | Solubility in water of docetaxel relative to taxol ([1]; I. Ringel et al., J. Natl. Cancer Inst., 83, 288 (1991)): 35 times; Solubility in water [1]: very low solubility in water
CC(=O)O[C@H]1C(=O)[C@@]2(C)[C@H]([C@H](OC(=O)c3ccccc3)[C@]3(O)C[C@H](OC(=O)[C@H](O)[C@@H](NC(=O)c4ccccc4)c4ccccc4)C(C)=C1C3(C)C)[C@]1(OC(C)=O)CO[C@@H]1C[C@@H]2O [Paclitaxel, paclitaxel] | 10 days | 143% | – | – | Solubility in water [1]: very low solubility in water; also recorded: low solubility in water; Change in body weight [2]: abrupt decrease in body weight; also recorded: decreased abruptly
CC(=O)O[C@H]1C(=O)[C@]2(C)[C@@H](OC(=O)COC3O[C@H](CO)[C@H](O)[C@H](O)[C@H]3O)C[C@H]3OC[C@@]3(OC(C)=O)[C@H]2[C@H](OC(=O)c2ccccc2)[C@]2(O)C[C@H](OC(=O)[C@H](O)[C@@H](NC(=O)c3ccccc3)c3ccccc3)C(C)=C1C2(C)C (stereo partly shown) [7-GAG-PT, Galactosyloxyacetyl-7-paclitaxel] | – | – | – | 0.0678 mg/mL (≈ 63.1 µM) | Solubility in water relative to paclitaxel (physchem; [3]): 169 times
